This note sets out measurements from patent US7674789B2, “Compounds” (Glaxo Group Limited, priority 2005, dated 2010).

This assay deals with influx of neutrophils to the lung in LPS-challenged rats. Description: Rat LPS neutrophilia model. The assay is classed as in vivo. The settings on record: intratracheal compound 15 min-24 hours before LPS aerosol (100 ug/ml, 15 min), lavage 4 hours later, in at least one of the range of conditions tested. The method, then:
Rat LPS Neutrophilia Model
The effect of compounds on the influx of neutrophils to the lung in LPS-challenged rats is evaluated as follows. The test compound is suspended in one of the following solutions: 0.5% tween 80/PBS, 0.5% tween 80/saline, 10% EtOH/saline (with pH adjusted to 2.0, or 8.0 with HCl, or unadjusted), Saline @ pH 2.0, 6.5 or 8.0, 0.5% Tragacanth, 1% DMSO/20% Encapsin/Saline, or acidified 5% Tragacanth. The suspension process may be aided by the use of a glass homogenizer. For intratracheal administration, the animals are anesthetized with inhaled isoflurane and placed in a supine position, the trachea is intubated with a steel gavage needle (1.5 inch, 22 gauge, small ball) or a Penn-Century Microsprayer Aerosolizer (model IA-1B) and 200 ul of dosing solution is delivered. The animals are visually monitored during the recovery process, which typically occurs within two minutes.
Rats treated with compound or vehicle (15 min-24 hours pretreatment) are exposed to an LPS aerosol (100 ug/ml) for 15 min. Four hours later the rats are euthanized with pentobarbital (100 mg/kg, i.p.) and the airways are lavaged with 5 washes of 5 ml of phosphate buffered saline. The harvested cells are stained (Diffquick) and counted to determine total and differential cell data. In a typical study, macrophages represent 40-70% of the total cells, and polymorphonuclear cells 30-60% of the total cells. Inhibition of neutrophil levels relative to no compound controls is calculated based on the differential counts.
The assay has varying conditions, such as concentration, pretreat time, form of the compound (crystalline, amorphous, salts, micronised), and a wet or dry application of the compound. The data is obtained as % inhibition using a particular concentration and pretreat time.

Where a name gives a salt, the structure may show the parent alone.

Regarding `Cc1ccc(C(=O)NCc2ccccc2)cc1-c1nc(NCCCN(C)C)nc2c1CNC(=O)N2c1c(F)cccc1F` [Example 151, 3-(8-(2,6-difluorophenyl)-2-{[3-(dimethylamino)propyl]amino}-7-oxo-5,6,7,8-tetrahydropyrimido[4,5-d]pyrimidin-4-yl)-4-methyl-N-(phenylmethyl)benzamide], the “inhibition of neutrophilia (neutrophil influx to the lung)” value (“inhibition of neutrophilia” below) was “statistically nonsignificant inhibition of neutrophilia”. In the case of `Cc1ccc(C(=O)NC(C)C)cc1-c1nc(N2CCCN(C)CC2)nc2c1CNC(=O)N2c1c(F)cccc1F` [Example 179, 3-[8-(2,6-difluorophenyl)-2-(4-methylhexahydro-1H-1,4-diazepin-1-yl)-7-oxo-6,7,8-tetrahydropyrimido[4,5-d]pyrimidin-4-yl]-4-methyl-N-(1-methylethyl)benzamide trifluoroacetate] it was “statistically nonsignificant inhibition of neutrophilia”. Under `Cc1ccc(C(=O)Nc2ccc(F)c(F)c2)cc1-c1nc(NCCN(C)C)nc2c1CNC(=O)N2c1c(F)cccc1F` [Example 138, N-(3,4-difluorophenyl)-3-(8-(2,6-difluorophenyl)-2-{[2-(dimethylamino)-ethyl]amino}-7-oxo-5,6,7,8-tetrahydropyrimido[4,5-d]pyrimidin-4-yl)-4-methylbenzamide] stands “statistically significant inhibition of neutrophilia”; under `Cc1ccc(C(=O)Nc2ccc(C)c(-c3nc(N4CCC(N)CC4)nc4c3CNC(=O)N4c3c(F)cccc3F)c2)cc1F` [Example 24, N-{3-[2-(4-amino-1-piperidinyl)-8-(2,6-difluorophenyl)-7-oxo-5,6,7,8-tetrahydropyrimido[4,5-d]pyrimidin-4-yl]-4-methylphenyl}-3-fluoro-4-methylbenzamide], “statistically nonsignificant inhibition of neutrophilia”; under `Cc1ccc(C(=O)NC(C)C)cc1-c1nc(N2CCC(N3CCCCC3)CC2)nc2c1CNC(=O)N2c1c(F)cccc1F` [Example 57, 3-[2-(1,4′-bipiperidin-1′-yl)-8-(2,6-difluorophenyl)-7-oxo-5,6,7,8-tetrahydropyrimido[4,5-d]pyrimidin-4-yl]-4-methyl-N-(1-methylethyl)benzamide], “statistically nonsignificant inhibition of neutrophilia”. In the case of `Cc1ccc(C(=O)NCc2ccccc2)cc1-c1nc(N(C)CCCN(C)C)nc2c1CNC(=O)N2c1c(F)cccc1F` [Example 17, 3-{8-(2,6-Difluorophenyl)-2-[[3-(dimethylamino)propyl](methyl)amino]-7-oxo-5,6,7,8-tetrahydropyrimido[4,5-d]pyrimidin-4-yl}-4-methyl-N-(phenylmethyl)benzamide] it was “statistically nonsignificant inhibition of neutrophilia”. As to `Cc1ccc(C(=O)Nc2ccccc2)cc1-c1nc(NCCN(C)C)nc2c1CNC(=O)N2c1c(F)cccc1F` [Example 137, 3-(8-(2,6-difluorophenyl)-2-{[2-(dimethylamino)ethyl]amino}-7-oxo-5,6,7,8-tetrahydropyrimido[4,5-d]pyrimidin-4-yl)-4-methyl-N-phenylbenzamide], the “inhibition of neutrophilia” value was “statistically significant inhibition of neutrophilia”. In the case of `COc1ccc(NC(=O)c2ccc(C)c(-c3nc(NCCN(C)C)nc4c3CNC(=O)N4c3c(F)cccc3F)c2)cn1` [Example 140, 3-(8-(2,6-difluorophenyl)-2-{[2-(dimethylamino)ethyl]amino}-7-oxo-5,6,7,8-tetrahydropyrimido[4,5-d]pyrimidin-4-yl)-4-methyl-N-[6-(methyloxy)-3-pyridinyl]benzamide] it was “statistically significant inhibition of neutrophilia”; in that of `Cc1ccc(C(=O)Nc2nccs2)cc1-c1nc(NC[C@H](C)O)nc2c1CNC(=O)N2c1c(F)cccc1F` [Example 134, 3-(8-(2,6-difluorophenyl)-2-{[(2S)-2-hydroxypropyl]amino}-7-oxo-5,6,7,8-tetrahydropyrimido[4,5-d]pyrimidin-4-yl)-4-methyl-N-1,3-thiazol-2-ylbenzamide], “statistically nonsignificant inhibition of neutrophilia”. Under `Cc1ccc(C(=O)Nc2ccc(F)cc2)cc1-c1nc(N(C)CCN(C)C)nc2c1CNC(=O)N2c1c(F)cccc1F` [Example 32, 3-{8-(2,6-difluorophenyl)-2-[[2-(dimethylamino)ethyl](methyl)amino]-7-oxo-5,6,7,8-tetrahydropyrimido[4,5-d]pyrimidin-4-yl}-N-(4-fluorophenyl)-4-methylbenzamide] stands “statistically nonsignificant inhibition of neutrophilia”; under `Cc1ccc(C(=O)Nc2ccc(C)c(-c3nc(OC(C)C)nc4c3CNC(=O)N4c3c(F)cccc3F)c2)cc1F` [Example 26, N-(3-{8-(2,6-difluorophenyl)-2-[(1-methylethyl)oxy]-7-oxo-5,6,7,8-tetrahydropyrimido[4,5-d]pyrimidin-4-yl}-4-methylphenyl)-3-fluoro-4-methylbenzamide], “inactive”; under `CCCNC(=O)c1ccc(C)c(-c2nc(NCCCN(CC)CC)nc3c2CNC(=O)N3c2c(F)cccc2F)c1` [29(c), 3-[2-{[3-(diethylamino)propyl]amino}-8-(2,6-difluorophenyl)-7-oxo-5,6,7,8-tetrahydropyrimido[4,5-d]pyrimidin-4-yl]-4-methyl-N-propylbenzamide], “statistically significant inhibition of neutrophilia”. In the case of `Cc1ccc(C(=O)Nc2nccs2)cc1-c1nc(N(C)CCCN(C)C)nc2c1CNC(=O)N2c1c(F)cccc1F` [Example 124, 3-{8-(2,6-difluorophenyl)-2-[[3-(dimethylamino)propyl](methyl)amino]-7-oxo-5,6,7,8-tetrahydropyrimido[4,5-d]pyrimidin-4-yl}-4-methyl-N-1,3-thiazol-2-ylbenzamide] it was “statistically nonsignificant inhibition of neutrophilia”.

As to `Cc1ccc(C(=O)Nc2ccc(F)cc2)cc1-c1nc(NCCN(C)C)nc2c1CNC(=O)N2c1c(F)cccc1F` [8(c), 3-(8-(2,6-difluorophenyl)-2-{[2-(dimethylamino)ethyl]amino}-7-oxo-5,6,7,8-tetrahydropyrimido[4,5-d]pyrimidin-4-yl)-N-(4-fluorophenyl)-4-methylbenzamide], the “inhibition of neutrophilia” value was “statistically significant inhibition of neutrophilia”.

With `Cc1ccc(C(=O)NC(C)C)cc1-c1nc(NCCN(C)C)nc2c1CNC(=O)N2c1c(F)cccc1F` [Example 37, 3-(8-(2,6-difluorophenyl)-2-{[2-(dimethylamino)ethyl]amino}-7-oxo-5,6,7,8-tetrahydropyrimido[4,5-d]pyrimidin-4-yl)-4-methyl-N-(1-methylethyl)benzamide], the “inhibition of neutrophilia” value is “statistically nonsignificant inhibition of neutrophilia”.

As to `CCN(CC)CCCNc1nc(-c2cc(C(=O)NC)ccc2C)c2c(n1)N(c1c(F)cccc1F)C(=O)NC2` [Example 172, 3-[2-{[3-(diethylamino)propyl]amino}-8-(2,6-difluorophenyl)-7-oxo-5,6,7,8-tetrahydropyrimido[4,5-d]pyrimidin-4-yl]-N,4-dimethylbenzamide], the “inhibition of neutrophilia” value is “statistically nonsignificant inhibition of neutrophilia”. Under `CCN(CC)CCCNc1nc(-c2cc(C(=O)Nc3ccc(F)cc3)ccc2C)c2c(n1)N(c1c(F)cccc1F)C(=O)NC2` [Example 43, 3-[2-{[3-(diethylamino)propyl]amino}-8-(2,6-difluorophenyl)-7-oxo-5,6,7,8-tetrahydropyrimido[4,5-d]pyrimidin-4-yl]-N-(4-fluorophenyl)-4-methylbenzamide] stands “inactive”; under `Cc1ccc(C(=O)NCc2ccccc2)cc1-c1nc(N2CCN(C)CC2)nc2c1CNC(=O)N2c1c(F)cccc1F` [Example 148, 3-[8-(2,6-difluorophenyl)-2-(4-methyl-1-piperazinyl)-7-oxo-5,6,7,8-tetrahydropyrimido[4,5-d]pyrimidin-4-yl]-4-methyl-N-(phenylmethyl)benzamide], “statistically nonsignificant inhibition of neutrophilia”; under `CNC(=O)c1ccc(C)c(-c2nc(N(C)CCCN(C)C)nc3c2CNC(=O)N3c2c(F)cccc2F)c1` [Example 174, 3-{8-(2,6-difluorophenyl)-2-[[3-(dimethylamino)propyl](methyl)amino]-7-oxo-5,6,7,8-tetrahydropyrimido[4,5-d]pyrimidin-4-yl}-N,4-dimethylbenzamide], “inactive”.
